Assay results published in PubChem BioAssay AID330 (DTP/NCI, 2004).
Several values for one entry are separate records, joined by “and”; a condition that tells them apart may be missing. Equal values may be shown once. Inconclusive results and toxic doses are left out.

System: P388 leukemia ip, CD2F1 mice, survival T/C
Assay: NCI In Vivo Anticancer Drug Screen. Data for tumor model P388 Leukemia (intraperitoneal) in CD2F1 (CDF1) mice
Settings: endpoint: median survival time, higher = longer survival
Outline: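 Mice carrying the transplanted tumor received test compound or vehicle. Survival was recorded in each group, and the value is the treated-group measurement divided by that of the vehicle-treated control group.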

[1] = dose: 100.0 mg/kg/injection, schedule: Q04DX003 (ip), vehicle: saline
[2] = dose: 200.0 mg/kg/injection, schedule: Q04DX003 (ip), vehicle: saline
[3] = dose: 400.0 mg/kg/injection, schedule: Q04DX003 (ip), vehicle: saline
[4] = dose: 50.0 mg/kg/injection, schedule: Q01DX009 (ip), vehicle: saline
[5] = dose: 100.0 mg/kg/injection, schedule: Q01DX009 (ip), vehicle: saline
[6] = dose: 200.0 mg/kg/injection, schedule: Q01DX009 (ip), vehicle: saline
[7] = dose: 50.0 mg/kg/injection, schedule: Q01DX005 (ip), vehicle: Klucel (hydroxypropylcellulose) (HPC)
[8] = dose: 100.0 mg/kg/injection, schedule: Q01DX005 (ip), vehicle: Klucel (hydroxypropylcellulose) (HPC)
[9] = dose: 200.0 mg/kg/injection, schedule: Q01DX005 (ip), vehicle: Klucel (hydroxypropylcellulose) (HPC)
[10] = dose: 60.0 mg/kg/injection, schedule: Q01DX005 (ip), vehicle: saline with Tween-80
[11] = dose: 120.0 mg/kg/injection, schedule: Q01DX005 (ip), vehicle: saline with Tween-80
[12] = dose: 240.0 mg/kg/injection, schedule: Q01DX005 (ip), vehicle: saline with Tween-80
[13] = dose: 50.0 mg/kg/injection, schedule: Q01DX005 (ip), vehicle: saline with Tween-80
[14] = dose: 100.0 mg/kg/injection, schedule: Q01DX005 (ip), vehicle: saline with Tween-80
[15] = dose: 200.0 mg/kg/injection, schedule: Q01DX005 (ip), vehicle: saline with Tween-80

## S=C(Nc1ccc(N=Nc2ccccc2)cc1)SCc1ccccc1
[1]
  T/C: 98 % of control
[2]
  T/C: 92 % of control
[3]
  T/C: 91 % of control

## CCC1CN1P(=O)(N(CC)CC)N1CC1CC (centres undefined)
[4]
  T/C: 109 % of control
[5]
  T/C: 170 % of control

## O=C(CCSc1nc(-c2ccccc2)c(-c2ccccc2)o1)N1CCCCC1
dose: 50.0 mg/kg/injection, schedule: Q01DX009 (ip), vehicle: Klucel (hydroxypropylcellulose) (HPC)
  T/C: 101 % of control
dose: 100.0 mg/kg/injection, schedule: Q01DX009 (ip), vehicle: Klucel (hydroxypropylcellulose) (HPC)
  T/C: 101 % of control
dose: 200.0 mg/kg/injection, schedule: Q01DX009 (ip), vehicle: Klucel (hydroxypropylcellulose) (HPC)
  T/C: 117 % of control

## CSCCCCCCCCCCSC
[4]
  T/C: 99 % of control
[5]
  T/C: 100 % of control
[6]
  T/C: 99 % of control

## CC(C)[NH-].CC(C)[NH-].O.O.[Cl][Pt+2][Cl]
dose: 8.0 mg/kg/injection, schedule: Q01DX009 (ip), vehicle: saline with Tween-80
  T/C: 167 % of control
dose: 12.5 mg/kg/injection, schedule: Q01DX009 (ip), vehicle: saline with Tween-80
  T/C: 184 % of control
dose: 18.0 mg/kg/injection, schedule: Q01DX009 (ip), vehicle: saline with Tween-80
  T/C: 202 % of control

## CC(=O)OC1CCC2CC3(CCC1(C)C2=O)OCCO3 (centres undefined)
dose: 100.0 mg/kg/injection, schedule: Q04DX003 (ip), vehicle: saline + Tween-80 + alcohol
  T/C: 100 % of control
dose: 200.0 mg/kg/injection, schedule: Q04DX003 (ip), vehicle: saline + Tween-80 + alcohol
  T/C: 99 % of control
dose: 400.0 mg/kg/injection, schedule: Q04DX003 (ip), vehicle: saline + Tween-80 + alcohol
  T/C: 103 % of control

## CC(=O)NCc1cc(C)c(CCl)cc1CCl
dose: 3.13 mg/kg/injection, schedule: Q01DX009 (ip), vehicle: distilled water + Tween-80
  T/C: 103 % of control
dose: 6.25 mg/kg/injection, schedule: Q01DX009 (ip), vehicle: distilled water + Tween-80
  T/C: 114 % of control and 117 % of control
dose: 12.5 mg/kg/injection, schedule: Q01DX009 (ip), vehicle: distilled water + Tween-80
  T/C: 122 % of control and 123 % of control
dose: 25.0 mg/kg/injection, schedule: Q01DX009 (ip), vehicle: distilled water + Tween-80
  T/C: 116 % of control

## CCOc1cc2c(cc1C(CC)c1ccccc1)OCO2 (centres undefined)
[7]
  T/C: 99 % of control
[8]
  T/C: 96 % of control
[9]
  T/C: 95 % of control

## COC1OC(COS(=O)(=O)c2ccc(C)cc2)C2OC(C)(C)OC12 (centres undefined)
[7]
  T/C: 95 % of control
[8]
  T/C: 100 % of control

## Cc1ccccc1N
dose: 50.0 mg/kg/injection, schedule: Q01DX009 (ip), vehicle: saline sonified
  T/C: 100 % of control
dose: 100.0 mg/kg/injection, schedule: Q01DX009 (ip), vehicle: saline sonified
  T/C: 100 % of control
dose: 200.0 mg/kg/injection, schedule: Q01DX009 (ip), vehicle: saline sonified
  T/C: 104 % of control

## CCOC(=O)c1cc(=O)[nH]c2cc(N)ccc12
dose: 60.0 mg/kg/injection, schedule: Q01DX005 (ip), vehicle: Klucel (hydroxypropylcellulose) (HPC)
  T/C: 97 % of control
dose: 120.0 mg/kg/injection, schedule: Q01DX005 (ip), vehicle: Klucel (hydroxypropylcellulose) (HPC)
  T/C: 93 % of control
dose: 240.0 mg/kg/injection, schedule: Q01DX005 (ip), vehicle: Klucel (hydroxypropylcellulose) (HPC)
  T/C: 91 % of control

## Cc1ccc(NC(=O)Oc2ccc(C#N)cc2)c(C)c1
[10]
  T/C: 92 % of control
[11]
  T/C: 95 % of control
[12]
  T/C: 101 % of control

## O=C1C=C2CCC3=CC(=O)C(=CC3=O)CCC(=C1)C2=O
dose: 100.0 mg/kg/injection, schedule: Q04DX002 (ip), vehicle: Klucel (hydroxypropylcellulose) (HPC)
  T/C: 97 % of control
dose: 200.0 mg/kg/injection, schedule: Q04DX002 (ip), vehicle: Klucel (hydroxypropylcellulose) (HPC)
  T/C: 97 % of control

## CN=C(N)N/N=C(\c1ccccc1)c1ccc(Br)cc1
dose: 3.12 mg/kg/injection, schedule: Q04DX002 (ip), vehicle: saline with Tween-80
  T/C: 101 % of control
dose: 6.25 mg/kg/injection, schedule: Q04DX002 (ip), vehicle: saline with Tween-80
  T/C: 108 % of control and 96 % of control

## COc1cc(CC2C(=O)OCC2C(=O)c2ccc3c(c2)OCO3)cc(OC)c1OC (centres undefined)
dose: 12.5 mg/kg/injection, schedule: Q01DX005 (ip), vehicle: Klucel (hydroxypropylcellulose) (HPC)
  T/C: 102 % of control
dose: 25.0 mg/kg/injection, schedule: Q01DX005 (ip), vehicle: Klucel (hydroxypropylcellulose) (HPC)
  T/C: 102 % of control
[7]
  T/C: 91 % of control and 93 % of control
[8]
  T/C: 98 % of control
[9]
  T/C: 98 % of control

## NC(=S)N/N=C/c1c(Br)nc2n1CCS2
dose: 100.0 mg/kg/injection, schedule: Q01DX001 (ip), vehicle: Klucel (hydroxypropylcellulose) (HPC)
  T/C: 99 % of control
dose: 200.0 mg/kg/injection, schedule: Q01DX001 (ip), vehicle: Klucel (hydroxypropylcellulose) (HPC)
  T/C: 92 % of control
dose: 400.0 mg/kg/injection, schedule: Q01DX001 (ip), vehicle: Klucel (hydroxypropylcellulose) (HPC)
  T/C: 93 % of control

## ClCCN1c2ccccc2Oc2cc3ccccc3cc21
[13]
  T/C: 101 % of control
[14]
  T/C: 110 % of control
[15]
  T/C: 100 % of control

## NCCC(=O)NC(Cc1cnc[nH]1)C(=O)O (centres undefined)
[4]
  T/C: 104 % of control
[5]
  T/C: 104 % of control
[6]
  T/C: 99 % of control
dose: 400.0 mg/kg/injection, schedule: Q01DX009 (ip), vehicle: saline
  T/C: 98 % of control

## COP(=O)(O)OC.[Th]
dose: 50.0 mg/kg/injection, schedule: Q01DX009 (ip), vehicle: saline with Tween-80
  T/C: 118 % of control
dose: 100.0 mg/kg/injection, schedule: Q01DX009 (ip), vehicle: saline with Tween-80
  T/C: 88 % of control
dose: 200.0 mg/kg/injection, schedule: Q01DX009 (ip), vehicle: saline with Tween-80
  T/C: 90 % of control

## C=C1C(=O)OC2/C=C(\C)C(O)CC(O)C(C)(O)CC(OC(=O)/C(C)=C/C)C12 (centres undefined)
dose: 10.0 mg/kg/injection, schedule: Q01DX009 (ip), vehicle: saline with Tween-80
  T/C: 102 % of control
dose: 20.0 mg/kg/injection, schedule: Q01DX009 (ip), vehicle: saline with Tween-80
  T/C: 100 % of control and 119 % of control and 97 % of control
dose: 40.0 mg/kg/injection, schedule: Q01DX009 (ip), vehicle: saline with Tween-80
  T/C: 101 % of control and 113 % of control and 123 % of control
dose: 80.0 mg/kg/injection, schedule: Q01DX009 (ip), vehicle: saline with Tween-80
  T/C: 113 % of control and 115 % of control

## C/C(=N\N1CN(C(C)C(=O)O)P(Nc2ncn[nH]2)N=C1N)c1cccs1 (centres undefined)
dose: 7.5 mg/kg/injection, schedule: Q01DX005 (ip), vehicle: saline with Tween-80
  T/C: 96 % of control
dose: 15.0 mg/kg/injection, schedule: Q01DX005 (ip), vehicle: saline with Tween-80
  T/C: 103 % of control
dose: 30.0 mg/kg/injection, schedule: Q01DX005 (ip), vehicle: saline with Tween-80
  T/C: 106 % of control

## CC(=O)NC1CCCCC1[Se](=O)c1ccccc1 (centres undefined)
[13]
  T/C: 108 % of control
[14]
  T/C: 100 % of control
[15]
  T/C: 109 % of control

## COc1cccc2c1C(=O)c1c(O)c3c(c(O)c1C2=O)CC(O)(C(C)=O)CC3OC1OC(C)C(O)C(N)C1O (centres undefined)
dose: 3.13 mg/kg/injection, schedule: Q04DX003 (ip), vehicle: water
  T/C: 91 % of control
dose: 6.25 mg/kg/injection, schedule: Q04DX003 (ip), vehicle: water
  T/C: 110 % of control
dose: 12.5 mg/kg/injection, schedule: Q04DX003 (ip), vehicle: water
  T/C: 99 % of control
dose: 25.0 mg/kg/injection, schedule: Q04DX003 (ip), vehicle: water
  T/C: 100 % of control
dose: 50.0 mg/kg/injection, schedule: Q04DX003 (ip), vehicle: water
  T/C: 103 % of control

## Cc1cc(N=Cc2c(CO)cnc(C)c2O)c(N=Cc2c(CO)cnc(C)c2O)cc1C
[7]
  T/C: 98 % of control
[10]
  T/C: 93 % of control
[8]
  T/C: 96 % of control
[11]
  T/C: 104 % of control
[9]
  T/C: 91 % of control
[12]
  T/C: 94 % of control

## O=C1CNC(=O)N1CCO
dose: 12.5 mg/kg/injection, schedule: Q04DX003 (ip), vehicle: saline
  T/C: 99 % of control
dose: 25.0 mg/kg/injection, schedule: Q04DX003 (ip), vehicle: saline
  T/C: 106 % of control
dose: 50.0 mg/kg/injection, schedule: Q04DX003 (ip), vehicle: saline
  T/C: 98 % of control
[1]
  T/C: 99 % of control
[2]
  T/C: 104 % of control
[3]
  T/C: 104 % of control
